Measured values taken from patent US20220135591A1, “HETEROCYCLIC COMPOUNDS AS INHIBITORS OF MONOACYLGLYCEROL LIPASE (MAGL)” (Hoffmann-La Roche Inc., priority 2019, published 2022).

target: T1, MAGL (Homo sapiens, UniProt Q99685); experiment: 2-AG assay: MAGL inhibitory activity by hydrolysis of 2-arachidonoylglycerol to arachidonic acid, mass spectrometry; type: biochemical; settings: 2-AG assay (values marked [b])
T1 sequence (Q99685 1-303): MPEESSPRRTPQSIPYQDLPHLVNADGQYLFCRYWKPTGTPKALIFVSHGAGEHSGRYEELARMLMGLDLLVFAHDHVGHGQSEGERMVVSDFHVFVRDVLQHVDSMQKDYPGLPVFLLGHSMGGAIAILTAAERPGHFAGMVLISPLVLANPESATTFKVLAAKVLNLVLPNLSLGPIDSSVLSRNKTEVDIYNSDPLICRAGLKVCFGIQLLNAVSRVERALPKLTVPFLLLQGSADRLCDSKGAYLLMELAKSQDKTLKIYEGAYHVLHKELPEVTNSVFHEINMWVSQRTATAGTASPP
Summary of the method: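 Human MAGL […] was preincubated 15 min at RT with compound ([…], 3-fold steps) in 50 mM Tris, 1 mM EDTA, 0.01% Tween. 2-AG (8 μM) was then added for 30 min at RT. Arachidonic acid was quantified by RapidFire SPE–triple quadrupole MS in negative ESI as its ratio to a d8-arachidonic acid standard.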

Compound	IC50
COc1cc(C(=O)N2CCN(c3nc4nc(C)ccc4o3)CC2)ccc1-c1cnn(CC(C)(C)C)n1 [Example 240, (3-methoxy-4-(2-neopentyl-2H-1,2,3-triazol-4-yl)phenyl)(4-(5-methyloxazolo[4,5-b]pyridin-2-yl)piperazin-1-yl)methanone]	2 nM
CC(C)(C)Cn1cc(-c2ncc(C(=O)N3CCN(c4nc5nc(Cl)ccc5o4)CC3)cc2F)nn1 [Example 241, (4-(5-chlorooxazolo[4,5-b]pyridin-2-yl)piperazin-1-yl)(5-fluoro-6-(1-neopentyl-1H-1,2,3-triazol-4-yl)pyridin-3-yl)methanone]	27 nM
CC(C)(C)Cn1ncc(-c2ncc(C(=O)N3CCN(c4nc5nc(Cl)ccc5o4)CC3)cc2F)n1 [Example 243, (4-(5-chlorooxazolo[4,5-b]pyridin-2-yl)piperazin-1-yl)(5-fluoro-6-(2-neopentyl-2H-1,2,3-triazol-4-yl)pyridin-3-yl)methanone]	25 nM
Cc1ccc2oc(N3CCN(C(=O)c4cnc(-c5cn(CC(C)(C)C)nn5)c(F)c4)CC3)nc2n1 [Example 244, (5-fluoro-6-(1-neopentyl-1H-1,2,3-triazol-4-yl)pyridin-3-yl)(4-(5-methyloxazolo[4,5-b]pyridin-2-yl)piperazin-1-yl)methanone]	50 nM
Cc1ccc2oc(N3CCN(C(=O)c4cnc(-c5cnn(CC(C)(C)C)n5)c(F)c4)CC3)nc2n1 [Example 245, (5-fluoro-6-(2-neopentyl-2H-1,2,3-triazol-4-yl)pyridin-3-yl)(4-(5-methyloxazolo[4,5-b]pyridin-2-yl)piperazin-1-yl)methanone]	57 nM
Cc1ccc2oc(N3CCN(C(=O)c4cnc(-c5cnnn5CC(C)(C)C)c(F)c4)CC3)nc2n1 [Example 246, (5-fluoro-6-(1-neopentyl-1H-1,2,3-triazol-5-yl)pyridin-3-yl)(4-(5-methyloxazolo[4,5-b]pyridin-2-yl)piperazin-1-yl)methanone]	1300 nM
Cc1ccc2oc(N3CCN(C(=O)c4cnc(-c5cnn(CC(C)(C)C)c5)c(C)c4)CC3)nc2n1 [Example 248, [6-[1-(2,2-dimethylpropyl)pyrazol-4-yl]-5-methylpyridin-3-yl]-[4-(5-methyl-[1,3]oxazolo[4,5-b]pyridin-2-yl)piperazin-1-yl]methanone]	14 nM
O=C(N1CCN(c2nc3nc(Cl)ccc3o2)CC1)N1CC(C#Cc2ccc(F)cc2Cl)C1 [Example 250, [3-[2-(2-chloro-4-fluorophenyl)ethynyl]azetidin-1-yl]-[4-(5-chloro-[1,3]oxazolo[4,5-b]pyridin-2-yl)piperazin-1-yl]methanone]	25 nM
O=C(NC1CN(C(=O)N2CCN(c3nc4nc(Cl)ccc4o3)CC2)C1)c1ccc(F)cc1Cl [Example 253, 2-chloro-N-[1-[4-(5-chloro-[1,3]oxazolo[4,5-b]pyridin-2-yl)piperazine-1-carbonyl]azetidin-3-yl]-4-fluorobenzamide]	≥ 12500 nM
Cc1ccc2oc(N3CCN(C(=O)N4CC(NC(=O)c5ccc(F)cc5Cl)C4)CC3)nc2n1 [Example 254, 2-chloro-4-fluoro-N-[1-[4-(5-methyl-[1,3]oxazolo[4,5-b]pyridin-2-yl)piperazine-1-carbonyl]azetidin-3-yl]benzamide]	≥ 12500 nM
O=C(Nc1ccc(F)cc1Cl)C1CN(C(=O)N2CCN(c3nc4nc(Cl)ccc4o3)CC2)C1 [Example 255, N-(2-chloro-4-fluorophenyl)-1-[4-(5-chloro-[1,3]oxazolo[4,5-b]pyridin-2-yl)piperazine-1-carbonyl]azetidine-3-carboxamide]	≥ 12500 nM
Cc1cc(C(=O)N2CCN(c3nc4nc(Cl)ccc4o3)CC2)ccc1-c1cn(C(C)(C)C)nn1 [Example 257, (4-(1-(tert-butyl)-1H-1,2,3-triazol-4-yl)-3-methylphenyl)(4-(5-chlorooxazolo[4,5-b]pyridin-2-yl)piperazin-1-yl)methanone]	58 nM
CC(C)Cc1nnc(-c2ccc(C(=O)N3CCN(c4nc5nc(Cl)ccc5o4)CC3)cc2)o1 [Example 267, (4-(5-chlorooxazolo[4,5-b]pyridin-2-yl)piperazin-1-yl)(4-(5-isobutyl-1,3,4-oxadiazol-2-yl)phenyl)methanone]	69 nM
CC(C)(C)Cn1ncc(-c2ccc(C(=O)N3CCN(c4nc5nc(Cl)ccc5o4)CC3)cc2C(F)(F)F)n1 [Example 269, (4-(5-chlorooxazolo[4,5-b]pyridin-2-yl)piperazin-1-yl)(4-(2-neopentyl-2H-1,2,3-triazol-4-yl)-3-(trifluoromethyl)phenyl)methanone]	6 nM
Cc1cc(C(=O)N2CCN(c3nc4nc(Cl)ccc4o3)CC2)cnc1-c1cn(CC(C)(C)C)nn1 [Example 271, (4-(5-chlorooxazolo[4,5-b]pyridin-2-yl)piperazin-1-yl)(5-methyl-6-(1-neopentyl-1H-1,2,3-triazol-4-yl)pyridin-3-yl)methanone]	74 nM
Cc1cc(C(=O)N2CCN(c3nc4nc(Cl)ccc4o3)CC2)cnc1-c1cnn(CC(C)(C)C)n1 [Example 272, (4-(5-chlorooxazolo[4,5-b]pyridin-2-yl)piperazin-1-yl)(5-methyl-6-(2-neopentyl-2H-1,2,3-triazol-4-yl)pyridin-3-yl)methanone]	9 nM
C[C@@H]1CN(C(=O)c2ccc(-c3cn(CC(C)(C)C)nn3)cc2)CCN1c1nc2nc(Cl)ccc2o1 [Example 273, [(3R)-4-(5-chlorooxazolo[4,5-b]pyridin-2-yl)-3-methyl-piperazin-1-yl]-[4-[1-(2,2-dimethylpropyl)triazol-4-yl]phenyl]methanone]	20 nM
C[C@H]1CN(C(=O)c2ccc(-c3cn(CC(C)(C)C)nn3)cc2)CCN1c1nc2nc(Cl)ccc2o1 [Example 274, [(3S)-4-(5-chlorooxazolo[4,5-b]pyridin-2-yl)-3-methyl-piperazin-1-yl]-[4-[1-(2,2-dimethylpropyl)triazol-4-yl]phenyl]methanone]	137 nM
Cc1cc(C(=O)N2CCN(c3nc4nc(Cl)ccc4o3)CC2)ccc1-c1nnc(CC(C)C)o1 [Example 275, [4-(5-chlorooxazolo[4,5-b]pyridin-2-yl)piperazin-1-yl]-[4-(5-isobutyl-1,3,4-oxadiazol-2-yl)-3-methyl-phenyl]methanone]	26 nM
O=C(c1ccc(OCC2(C(F)(F)F)CC2)nc1Cl)N1CCN(c2nc3nc(Cl)ccc3o2)CC1 [Example 276, [4-(5-chlorooxazolo[4,5-b]pyridin-2-yl)piperazin-1-yl]-[2-chloro-6-[[1-(trifluoromethyl)cyclopropyl]methoxy]-3-pyridyl]methanone]	1520 nM

Other lines, results leading:

IC50	Compound
13 nM	COc1cc(C(=O)N2CCN(c3nc4nc(C)ccc4o3)CC2)ccc1-c1cn(CC(C)(C)C)nn1 [Example 239, (3-methoxy-4-(1-neopentyl-1H-1,2,3-triazol-4-yl)phenyl)(4-(5-methyloxazolo[4,5-b]pyridin-2-yl)piperazin-1-yl)methanone]
8410 nM	CC(C)(C)Cn1nncc1-c1ncc(C(=O)N2CCN(c3nc4nc(Cl)ccc4o3)CC2)cc1F [Example 242, (4-(5-chlorooxazolo[4,5-b]pyridin-2-yl)piperazin-1-yl)(5-fluoro-6-(1-neopentyl-1H-1,2,3-triazol-5-yl)pyridin-3-yl)methanone]
7 nM	Cc1cc(C(=O)N2CCN(c3nc4nc(Cl)ccc4o3)CC2)cnc1-c1cnn(CC(C)(C)C)c1 [Example 247, [4-(5-chloro-[1,3]oxazolo[4,5-b]pyridin-2-yl)piperazin-1-yl]-[6-[1-(2,2-dimethylpropyl)pyrazol-4-yl]-5-methylpyridin-3-yl]methanone]
22 nM	O=C(N1CCN(c2nc3nc(Cl)ccc3o2)CC1)N1CC(C#Cc2c(Cl)cccc2Cl)C1 [Example 249, (4-(5-chlorooxazolo[4,5-b]pyridin-2-yl)piperazin-1-yl)(3-((2,6-dichlorophenyl)ethynyl)azetidin-1-yl)methanone]
1240 nM	Cc1ccc2oc(N3CCN(C(=O)N4CC(COc5ccc(F)cc5Cl)C4)CC3)nc2n1 [Example 252, [3-[(2-chloro-4-fluorophenoxy)methyl]azetidin-1-yl]-[4-(5-methyl-[1,3]oxazolo[4,5-b]pyridin-2-yl)piperazin-1-yl]methanone]
≥ 12500 nM	Cc1ccc2oc(N3CCN(C(=O)N4CC(C(=O)Nc5ccc(F)cc5Cl)C4)CC3)nc2n1 [Example 256, N-(2-chloro-4-fluorophenyl)-1-[4-(5-methyl-[1,3]oxazolo[4,5-b]pyridin-2-yl)piperazine-1-carbonyl]azetidine-3-carboxamide]
31 nM	COC(C)(C)Cn1cc(-c2ccc(C(=O)N3CCN(c4nc5nc(Cl)ccc5o4)CC3)cc2)nn1 [Example 258, [4-(5-chlorooxazolo[4,5-b]pyridin-2-yl)piperazin-1-yl]-[4-[1-(2-methoxy-2-methyl-propyl)triazol-4-yl]phenyl]methanone]
4 nM	CC(C)(C)Cn1cc(-c2ccc(C(=O)N3CCN(c4nc5nc(Cl)ccc5o4)CC3)cc2C(F)(F)F)nn1 [Example 268, (4-(5-chlorooxazolo[4,5-b]pyridin-2-yl)piperazin-1-yl)(4-(1-neopentyl-1H-1,2,3-triazol-4-yl)-3-(trifluoromethyl)phenyl)methanone]
323 nM	CC(C)(C)Cn1nncc1-c1ccc(C(=O)N2CCN(c3nc4nc(Cl)ccc4o3)CC2)cc1C(F)(F)F [Example 270, (4-(5-chlorooxazolo[4,5-b]pyridin-2-yl)piperazin-1-yl)(4-(1-neopentyl-1H-1,2,3-triazol-5-yl)-3-(trifluoromethyl)phenyl)methanone]
